According to article PMC8765781, “A platform of assays for the discovery of anti-Zika small-molecules with activity in a 3D-bioprinted outer-blood-retina model” (PLoS ONE, 2022):
pIC50: −log10 of the molar value. Where two headings read alike, the source gives them in different places.

Columns and labels:
[1] = test system: ZIKV-RLuc (Cambodian strain FSS13025); experiment: microbe, parasite or virus in culture; assay type: cell-based, Zika virus; settings: Zika virus, Vero, 48 h, read-out: Rluc-ZIKV (ZIKV Antiviral Assays), IC50
[2] = test system: caspase-3 activity induced by ZIKV in Vero cells; experiment: cells; assay type: cell-based; settings: Zika virus, Vero, 48 h, read-out: Caspase 3 (ZIKV Antiviral Assays), IC50
in vitro [3] = settings: human
[4] = test system: mCherry-ZIKV in human neuronal progenitor cells; experiment: microbe, parasite or virus in culture; assay type: cell-based, Zika virus; settings: for AC50 / pIC50: Zika virus, Neuronal progenitor cell; for pIC50: read-out: NPC (ZIKV Antiviral Assays), IC50
[5] = test system: wild-type ZIKV (Ugandan MR766 strain) in Vero cells; experiment: ZIKV cytopathic effect (CPE) inhibition qHTS assay, CellTiter-Glo readout; assay type: cell-based, Zika virus; settings: for AC50 / pIC50: Zika virus, Vero; for pIC50: 48 h, read-out: ZIKV-infection (CPE, ZIKV Antiviral Assays), IC50
in vitro [6] = settings: human; remark: listed apart in the source
[7] = test system: ZIKV-mCherry (Cambodian strain FSS13025); experiment: microbe, parasite or virus in culture; assay type: cell-based, Zika virus; settings: for AC50: Zika virus, Vero
in vitro [8] = settings: African green monkey; for CC50 at 48 h: Vero cells
[9] = test system: DENV (Dengue virus type 2, strain New Guinea C)
[10] = read-out: Log AC50 (M) (converted)

| SMILES | pIC50 [1] | pIC50 [2] | CC50 at 24 h (in vitro [3]) | Antiviral activity in human NPC [4] | CC-v2 (curve class) [4] | Efficacy [4] | Max Resp [4] | AC50 [4] | AC50 [4, 10] | pIC50 [4] | Efficacy [5] | AC50 [5] | pIC50 [5] | AC50 [5, 10] | CC-v2 (curve class of the dose response curve) [7] | Efficacy (difference between neutral response and maximum compound response) [7] | Max Resp (difference between neutral response and response at highest compound concentration) [7] | CC50 at 48 h (in vitro [8]) | WHV active Yes/No (WNV (Kern515/WN02)) | ZIKV active Yes/No (ZIKV) | further results |
| --- | --- | --- | --- | --- | --- | --- | --- | --- | --- | --- | --- | --- | --- | --- | --- | --- | --- | --- | --- | --- | --- |
| Nc1ccn([C@@H]2O[C@H](CO)[C@@H](O)C2(F)F)c(=O)n1 [NCGC00168784-08, gemcitabine, reference compound] | 7.70 | < 4.32 | 16.3 µM | moderate antiviral activity | -1.2 | -65.573 | -52.766 | 6.31e-06 M | 6.31e-06 M | 5.20 | -24.938 | 9.2e-06 M | 5.04 | 9.2e-06 M | -1.2 | -61.697 | -99.896 | > 50 µM |  |  | CC50 (in vitro [6]): > 30 µM; AC50 [7]: 2.67e-09 M; AC50 [7, 10]: 2.67e-09 M |
| C=C1CCC2[C@](C)(CCC[C@]2(C)C(=O)O)[C@H]1CC/C(C)=C/C(=O)OC (stereo partly shown) [NCGC00168922-02] | 7.15 | 5.14 | 13.3 µM |  | 4 | -21.467 | -17.835 |  |  | 4.95 | -63.179 | 4.04e-07 M | 6.40 | 4.04e-07 M | -1.4 | -50.999 | -55.843 | > 50 µM | No | No | YFV active Yes/No (YFV (YFV 17D)): No; DENV active Yes/No [9]: No; CC50 (in vitro [6]): > 30 µM |
| OC1C=C2C3CN(Cc4cc5c(cc43)OCO5)C2CC1O (stereo not shown) [NCGC00385948-01] | 5.03 | 5.38 |  | effectively inhibited ZIKV in NPC cells | -1.2 | -64.358 | -62.953 | 1e-05 M | 1e-05 M | 5.00 | -79.681 | 2.59e-05 M |  | 2.59e-05 M | -1.2 | -44.826 | -97.729 |  | Yes | Yes | Activity against WNV (WNV (Kern515/WN02)): weaker against WNV and ZIKV; SI value WHV (CC50/EC50) (WNV (Kern515/WN02)): 7.6; Selectivity Index WHV (CC50/EC50) (WNV (Kern515/WN02)): 8; CC50 (in vitro [3]): > 30 µM; Activity against ZIKV (ZIKV): weaker against WNV and ZIKV; SI value ZIKV (CC50/EC50) (ZIKV): 4.7; Selectivity Index ZIKV (CC50/EC50) (ZIKV): 5; YFV active Yes/No (YFV (YFV 17D)): No; CC-v2 (curve class classification of the dose response curve) [5]: -2.2; Activity against DENV [9]: active against DENV; DENV active Yes/No [9]: Yes; SI value DENV (CC50/EC50) [9]: 16; Selectivity Index DENV (CC50/EC50) [9]: 16; AC50 [7]: 2.67e-06 M; AC50 [7, 10]: 2.67e-06 M; CC50 (in vitro [8]): > 50 µM |
| CC(C)(C#N)c1ccc(N2C(=O)OCc3cnc4ccc(-c5cnc6ccccc6c5)cc4c32)cc1 [NCGC00386292-05] | 5.53 | 7.40 | > 30 µM | moderate antiviral activity |  | -38.419 | 3.825 | 2.51e-05 M | 2.51e-05 M | 4.60 | -23.858 | 4.61e-06 M | 5.34 | 4.61e-06 M | -1.2 | -67.723 | -93.524 | > 50 µM | No | Yes | SI value ZIKV (CC50/EC50) (ZIKV): 3; Selectivity Index ZIKV (CC50/EC50) (ZIKV): 3; YFV active Yes/No (YFV (YFV 17D)): No; DENV active Yes/No [9]: No; AC50 [7]: 5.32e-07 M; AC50 [7, 10]: 5.32e-07 M |
| C=C(F)c1sc(CNCCCNc2cc(=O)c3ccccc3[nH]2)c(C)c1Br [NCGC00386616-01] | 5.08 | 5.98 | > 30 µM | moderate antiviral activity | -2.2 | -88.323 | -56.18 | 3.98e-05 M | 3.98e-05 M | 4.40 | -30.953 | 2.06e-05 M | 4.69 | 2.06e-05 M | -1.4 | -70.696 | -94.173 | > 50 µM | No | No | YFV active Yes/No (YFV (YFV 17D)): No; DENV active Yes/No [9]: No |
